These results are taken from US20040175813A1, “Mutant P53 proteins and uses thereof” (priority 2002, published 2004).

The test system of the assay is MCF-7 c-Jun over-expressing cells. Description: Sensitivity of c-Jun over-expressing cells to apoptotic inducing agents, DNA fragmentation. The assay is classed as cell-based, human. The settings on record: for DNA fragmentation in cells cultured with the agent: FIG. 4A; for Sensitivity of c-Jun over-expressing cells to the apoptotic inducing agent: compared to vector control, FIG. 3. From the text: Human MCF-7 cells were stably transfected with wild type transcription factor c-jun and expressed high levels of c-Jun protein. The c-Jun over-expressing MCF-7 cells were obtained from Drs. Michael Birrer (National Institutes of Health, National Cancer Institute, Rockville, Md.) and Paul Brown (Baylor College of Medicine, Houston, Texas). A description of the c-Jun over-expressing MCF-7 cells can be found in Yang et al. (1997) and Smith et al. (1999).
Bax levels were not altered (FIG. 2A).

For the compound `CC1=C(/C=C/C(C)=C/C=C/C(C)=C/C(=O)Nc2ccc(O)cc2)C(C)(C)CCC1` [N-(4-hydroxyphenyl) retinamide (4-HPR), N-(4-hydroxyphenyl) retinamide], the “DNA fragmentation in cells cultured with the agent” value (“DNA fragmentation in cells cultured” below) is listed as “high degree of DNA fragmentation” and the “Sensitivity of c-Jun over-expressing cells to the apoptotic inducing agent” value is “highly sensitive”.
With `Cc1c(C)c2c(c(C)c1OC(=O)CCC(=O)O)CC[C@@](C)(CCC[C@H](C)CCC[C@H](C)CCCC(C)C)O2` [vitamin E succinate (VES), vitamin E succinate], the “DNA fragmentation in cells cultured” value was “high degree of DNA fragmentation” and the “Sensitivity of c-Jun over-expressing cells to the apoptotic inducing agent” value is “highly sensitive”.
Take ceramide: the “DNA fragmentation in cells cultured” value is on record as “high degree of DNA fragmentation” and the “Sensitivity of c-Jun over-expressing cells to the apoptotic inducing agent” value is “highly sensitive”.
